Laboratory results as given in patent publication US5811083A, “Tocopherol derivatives for use in cosmetic compositions” (Estee Lauder, Inc., priority 1996, dated 1998).
Entries after “also recorded” stand apart in the source; their conditions may differ.

Columns and labels:
[1] = system: lipid peroxidation, human skin; test: clinical study, lipid peroxides in ethanol washes of ventral forearms after topical cream; assay type: in vivo; conditions: for average level of peroxides, 500 mJ/cm^2 + Ao: UVB 500 mJ/cm^2; for average level of peroxides, 0 + Ao: not irradiated
Description: A clinical study was undertaken in order to measure the effectiveness of topically applied compositions containing tocopherol-cysteamine on human skin. Protection against lipid peroxidation was used as a biological marker in a study of twenty subjects.
A cream containing 0.10% tocopherol-cysteamine and other antioxidants was prepared using the batch formulation of Table III.
The cream containing 0.10% tocopherol-cysteamine was applied by the panelists to their left ventral forearms twice daily. The same cream formulation without any antioxidants was used as the control and applied to the right ventral forearms. At 0, 4, 8 and 12 weeks, ethanol washes were taken and samples aliquoted for endogenous levels of lipid peroxides, susceptibility to lipid peroxidation by UVB irradiation at 500 mJ/cm^2, and lipid analysis.

[2] = system: UV-induced lipid peroxidation; test: UV/liposomal assay of anti-oxidant activity after storage for five years at ambient temperatures; assay type: biochemical; conditions: for Inhibition: average of two separate assays performed in duplicate; for retention of antioxidant activity on storage: dry powder form, ambient temperatures, five years
Description: The tocopherol sample used in this assay was freshly prepared and stored under argon gas in a sealed amber ampoule at -20° C. […] In contrast, the tocopherol-cysteamine samples used in the assay were stored in dry powder form at ambient temperatures for more than five years. […] In particular, several materials, including two batches of tocopherol-cysteamine, were tested for anti-oxidant activity using a UV/liposomal assay. The results reported below represent the average of two separate assays performed in duplicate.

[3] = system: UV-induced lipid peroxidation; test: in vitro liposomal/UV assay, inhibition of UV-induced lipid peroxidation; assay type: biochemical
Description: The antioxidant potential and stability of equimolar concentrations of tocopherol-cysteamine, cysteamine, and a α-tocopherol were compared using an in vitro liposomal/UV assay. This assay provides an effective means of measuring an antioxidant's potential to inhibit UV-induced lipid peroxidation which may correlate with the antioxidant's inhibition of free radical generation in the skin. […] The antioxidant contribution of cysteamine to the derivative was tested by measuring cysteamine alone and determined to be 20.1%.

[4] = cited from earlier work
[5] = ambient temperatures, over a period of one week; cited from earlier work
[6] = week 0, cream 0.10% tocopherol-cysteamine and other antioxidants
[7] = week 4, cream 0.10%, twice daily
[8] = week 8, cream 0.10%, twice daily
[9] = week 12, cream 0.10%, twice daily

Cc1c(C)c2c(c(C)c1O)CCC(C)(C(=O)NCCS)O2 (stereo not drawn) [Tocopherol-cysteamine]
amount of endogenous peroxides, week 8 vs week 0 ([1]; 8 weeks vs 0 time point, p value less than 0.1): significant decrease
amount of peroxides generated by UVB, week 8 vs week 0 ([1]; 8 weeks vs 0 time point, p<0.01, t test): significant decrease
average values vs untreated samples, 12 weeks ([1]; 12 week time point, control and irradiated preparations): lower than the untreated samples
peroxide levels after irradiation over the course of treatment ([1]; irradiated, treated arms): decreased over the course of treatment
average endogenous peroxide levels over time ([1]; treated but not irradiated): decreased over time
average level of peroxides, 500 mJ/cm^2 + Ao [1, 6]: 17.69
average level of peroxides, 0 + Ao [1, 6]: 9.10
average level of peroxides, 500 mJ/cm^2 + Ao [1, 7]: 12.95
average level of peroxides, 0 + Ao [1, 7]: 8.19
average level of peroxides, 500 mJ/cm^2 + Ao [1, 8]: 10.33
average level of peroxides, 0 + Ao [1, 8]: 6.56
average level of peroxides, 500 mJ/cm^2 + Ao [1, 9]: 26.67
average level of peroxides, 0 + Ao [1, 9]: 21.19
activity of 5 year-old vs new batch ([2]; 0.010%, 5 year-old vs new batch): very similar
Inhibition ([2]; 5 year-old, 0.010%): 57.3%
retention of antioxidant activity on storage [2]: did not lose significant antioxidant activity over this five year period
retention of antioxidant activity on storage ([2]; listed as tocopheryl-cysteamine): does not lose any significant anti-oxidant activity
Inhibition ([2]; new batch, 0.010%): 65.6%
stability compared with α-tocopherol ([2]; storage at ambient temperatures): considerably more stable
% Inhibition (UV-induced lipid peroxidation) ([3]; 0.18 mM): 67.3%
antioxidant activity vs α-tocopherol and cysteamine assays combined ([3]; equimolar, 0.18 mM): greater than that activity observed in both the α-tocopherol and cysteamine assays combined
average inhibition of UV-induced lipid peroxidation, previous experiments ([3]; triplicate samplings assayed in duplicate): 65.2% (+/-3.61)

Cc1c(C)c2c(c(C)c1O)CCC(C)(C(=O)O)O2 (stereo not drawn) [Trolox-C, 6-hydroxy-2,5,7,8-tetra-methylchroman-2-carboxylic acid]
antioxidant activity vs α-tocopherol and other commercial food antioxidants (butylated hydroxytoluene, butylated hydroxyanisole) ([4]; Schaal thin layer oven and AOM tests): greater antioxidant activity than α-tocopherol and other commercial food antioxidants
antioxidant effectiveness in vegetable oils and animal fats ([4]; vegetable oils and animal fats): extremely effective antioxidant

NCCS [Cysteamine, cysteamine, reference compound]
% Inhibition (UV-induced lipid peroxidation) ([3]; 0.18 mM): 20.1%

Cc1c(C)c2c(c(C)c1O)CCC(C)(CCCC(C)CCCC(C)CCCC(C)C)O2 (stereo not drawn) [Tocopherol, α-Tocopherol]
loss of antioxidant potency on storage [5]: lose its antioxidant potency, and in fact become a pro-oxidant; also recorded: gradually lose antioxidant potency and become a prooxidant
% Inhibition (UV-induced lipid peroxidation) ([3]; 0.18 mM): 28.9%
